Assay results reported in ChEMBL document CHEMBL4000154, “Pyristriatins A and B: Pyridino-Cyathane Antibiotics from the Basidiomycete Cyathus cf. striatus” (J Nat Prod, 2016).
Values after ≈ are worked out from the molar mass of the structure shown. Active and inactive are the calls of the source. No cut-off for these calls is given here.

Assays:
L929 = test: Cytotoxicity against mouse L929 cells after 5 days by MTT assay; assay type: cell-based; details: L929, 120 h
Bacillus subtilis = test: Antibacterial activity against Bacillus subtilis DSM 10 after 24 to 48 hrs by serial dilution method; assay type: functional
[1] = system: Chromobacterium violaceum; test: Antibacterial activity against Chromobacterium violaceum DSM 30191 after 24 to 48 hrs by serial dilution method; assay type: functional
Micrococcus luteus = test: Antibacterial activity against Micrococcus luteus DSM 1790 after 24 to 48 hrs by serial dilution method; assay type: functional
Pseudomonas aeruginosa = test: Antibacterial activity against Pseudomonas aeruginosa PA14 after 24 to 48 hrs by serial dilution method; assay type: functional
Staphylococcus aureus = test: Antibacterial activity against Staphylococcus aureus DSM 346 after 24 to 48 hrs by serial dilution method; assay type: functional
Candida albicans = test: Antifungal activity against Candida albicans DSM 1665 after 24 to 48 hrs by serial dilution method; assay type: functional
Mucor plumbeus = test: Antifungal activity against Mucor plumbeus MUCL 49355 after 24 to 48 hrs by serial dilution method; assay type: functional
Wickerhamomyces anomalus = test: Antifungal activity against Pichia anomala DSM 6766 after 24 to 48 hrs by serial dilution method; assay type: functional
Rhodotorula glutinis = test: Antifungal activity against Rhodotorula glutinis DSM 10134 after 24 to 48 hrs by serial dilution method; assay type: functional
[2] = system: Schizosaccharomyces pombe; test: Antifungal activity against Schizosaccharomyces pombe DSM 70572 after 24 to 48 hrs by serial dilution method; assay type: functional
HUVEC = test: Cytotoxicity against HUVEC after 5 days by MTT assay; assay type: cell-based; details: Homo sapiens, 120 h
KB 3-1 = test: Cytotoxicity against human KB 3.1 cells after 5 days by MTT assay; assay type: functional, cell-based; details: KB 3-1, 120 h
Escherichia coli [3] = details: DSM 498
Description: (§1) Antibacterial activity against Escherichia coli DSM 498 after 24 to 48 hrs by serial dilution method

Escherichia coli [4] = test: microbe, parasite or virus in culture; details: DSM 498
Description: as §1

Compound: C/C(=C\c1csc(C)n1)[C@@H]1C[C@@H]2O[C@@H]2CCC[C@H](C)[C@H](O)[C@@H](C)C(=O)C(C)(C)[C@@H](O)CC(=O)O1 [EPOTHILONE A]
- IC50 (L929): 0.0038 µM

Compound: CO[C@@H]1O[C@H]2c3c(cnc(C(=O)CO)c31)C[C@H](O)[C@@H]1C3=C(C(C)C)CC[C@]3(C)CC[C@@]21C
- MIC (Bacillus subtilis): 9.4 µg/mL (≈ 21.3 µM)
- MIC [1]: inactive
- MIC (Micrococcus luteus): 8.3 µg/mL (≈ 18.8 µM)
- MIC (Pseudomonas aeruginosa): inactive
- MIC (Staphylococcus aureus): 8.3 µg/mL (≈ 18.8 µM)
- MIC (Candida albicans): inactive
- MIC (Mucor plumbeus): 150 µg/mL (≈ 340 µM)
- MIC (Wickerhamomyces anomalus): inactive
- MIC (Rhodotorula glutinis): 8.3 µg/mL (≈ 18.8 µM)
- MIC [2]: 8.3 µg/mL (≈ 18.8 µM)
- IC50 (HUVEC): 6.3 µM
- IC50 (KB 3-1): 12.7 µM
- IC50 (L929): 15.4 µM
- MIC (Escherichia coli [3]): inactive

Compound: NYSTATIN
- MIC (Candida albicans): 16.7 µg/mL
- MIC (Mucor plumbeus): 9.4 µg/mL
- MIC (Wickerhamomyces anomalus): 16.7 µg/mL
- MIC (Rhodotorula glutinis): 66.7 µg/mL
- MIC [2]: 66.7 µg/mL

Compound: O=C(O)c1cn(C2CC2)c2cc(N3CCNCC3)c(F)cc2c1=O [CIPROFLOXACIN]
- MIC (Bacillus subtilis): ≤ 2.3 µg/mL
- MIC (Escherichia coli [4]): ≤ 2.3 µg/mL

Compound: C/C(=C\c1csc(C)n1)[C@@H]1C[C@@H]2O[C@]2(C)CCC[C@H](C)[C@H](O)[C@@H](C)C(=O)C(C)(C)[C@@H](O)CC(=O)O1 [PATUPILONE]
- IC50 (HUVEC): 0.00055 µM
- IC50 (KB 3-1): 0.00022 µM

Compound: CN(C)[C@@H]1C(O)=C(C(N)=O)C(=O)[C@@]2(O)C(O)=C3C(=O)c4c(O)cccc4[C@@](C)(O)[C@H]3[C@H](O)[C@@H]12 [OXYTETRACYCLINE]
- MIC [1]: 2.1 µg/mL (≈ 4.56 µM)
- MIC (Micrococcus luteus): 8.3 µg/mL (≈ 18 µM)
- MIC (Staphylococcus aureus): 1 µg/mL (≈ 2.17 µM)

Compound: CO[C@H]1O[C@H]2c3c(cnc(C(=O)CO)c31)C[C@H](O)[C@@H]1C3=C(C(C)C)CC[C@]3(C)CC[C@@]21C
- MIC (Bacillus subtilis): 9.4 µg/mL (≈ 21.3 µM)
- MIC [1]: inactive
- MIC (Micrococcus luteus): 16.7 µg/mL (≈ 37.8 µM)
- MIC (Pseudomonas aeruginosa): inactive
- MIC (Staphylococcus aureus): 16.7 µg/mL (≈ 37.8 µM)
- MIC (Candida albicans): inactive
- MIC (Mucor plumbeus): 150 µg/mL (≈ 340 µM)
- MIC (Wickerhamomyces anomalus): inactive
- MIC (Rhodotorula glutinis): 16.7 µg/mL (≈ 37.8 µM)
- MIC [2]: 16.7 µg/mL (≈ 37.8 µM)
- IC50 (HUVEC): 5.9 µM
- IC50 (KB 3-1): 14.7 µM
- IC50 (L929): 16.3 µM
- MIC (Escherichia coli [3]): inactive
